Data from US6855730B2, “3-methylidenyl-2-indolinone modulators of protein kinase” (Sugen, Inc., priority 1998, dated 2005).

Experiments:
flkGST = molecular target: T1, flkGST (Homo sapiens, UniProt P35968); assay: bio flkGST assay; assay type: biochemical
T1 construct: GST

PDGFR-β = molecular target: T2, PDGFR-β (Homo sapiens, UniProt P09619); assay: Biochemical PDGFR assay (ELISA, PDGFR-β expressing NIH 3T3 cell lysate); conditions: read-out: bio PDGF IC50
T2 construct: host or cells: NIH 3T3
T2 sequence (P09619 33-1106): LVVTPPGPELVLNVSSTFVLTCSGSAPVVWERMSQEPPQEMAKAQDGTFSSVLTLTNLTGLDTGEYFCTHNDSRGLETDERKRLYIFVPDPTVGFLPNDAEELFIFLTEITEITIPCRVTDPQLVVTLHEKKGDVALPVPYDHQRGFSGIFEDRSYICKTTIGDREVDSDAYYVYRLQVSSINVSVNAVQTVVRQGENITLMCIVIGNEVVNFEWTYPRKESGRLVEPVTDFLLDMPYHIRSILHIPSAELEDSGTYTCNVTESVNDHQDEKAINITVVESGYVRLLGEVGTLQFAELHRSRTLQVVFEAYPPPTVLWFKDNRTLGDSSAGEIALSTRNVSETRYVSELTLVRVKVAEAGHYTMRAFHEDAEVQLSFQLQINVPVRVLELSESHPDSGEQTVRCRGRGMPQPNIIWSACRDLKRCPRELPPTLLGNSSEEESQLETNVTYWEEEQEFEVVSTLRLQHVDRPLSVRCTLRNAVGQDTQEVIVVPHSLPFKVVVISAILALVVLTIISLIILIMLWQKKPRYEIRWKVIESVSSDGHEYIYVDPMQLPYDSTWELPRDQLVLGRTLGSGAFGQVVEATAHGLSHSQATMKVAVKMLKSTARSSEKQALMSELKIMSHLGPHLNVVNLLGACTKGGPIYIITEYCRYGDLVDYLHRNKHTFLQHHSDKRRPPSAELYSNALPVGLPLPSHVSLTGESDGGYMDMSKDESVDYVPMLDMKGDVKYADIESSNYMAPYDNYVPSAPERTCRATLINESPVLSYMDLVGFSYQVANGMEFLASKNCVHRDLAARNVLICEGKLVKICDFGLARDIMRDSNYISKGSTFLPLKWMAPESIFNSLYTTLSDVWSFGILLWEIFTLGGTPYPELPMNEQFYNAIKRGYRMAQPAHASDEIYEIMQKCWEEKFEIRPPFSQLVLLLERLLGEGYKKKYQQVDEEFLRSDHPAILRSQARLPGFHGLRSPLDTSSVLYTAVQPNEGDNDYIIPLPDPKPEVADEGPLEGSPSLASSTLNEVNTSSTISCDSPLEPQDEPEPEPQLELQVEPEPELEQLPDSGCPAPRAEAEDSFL
Source text: This assay measures the in vitro kinase activity of PDGFR using ELISA.
Unless otherwise noted, the preparation of working solution-of the following reagents is the same as that for the Biochemical EGFR assay, above. • 1. […] 28D4C10 monoclonal anti-PDGFR antibody (Biochemistry Lab, SUGEN, Inc.). • 3. PBS (Dulbecco's Phosphate-Buffered Saline, Gibco Catalog No. 450-1300EB) • 4. TBST Buffer. • 5. Blocking Buffer. • 6. PDGFR-β expressing NIH 3T3 cell lysate (Screening Lab, SUGEN, Inc.). • 7. TBS Buffer. • 8. TBS+10% DMSO. • 9. […] MnCl2. • 11. Kinase buffer phosphorylation mix.
• 12. NUNC 96-well V bottom polypropylene plates (Applied Scientific Cat. No. AS-72092). • 13. Ethylenediaminetetraacetic acid (EDTA). • 14. Rabbit polyclonal anti-phosphotyrosine serum (Biochemistry Lab, SUGEN, Inc.). • 15. Goat anti-rabbit IgG peroxidase conjugate (Biosource Cat. No. ALI0404). • 16. 2,2′-azino-bis(3-ethylbenzthiazoline-6-sulfonic acid) (ABTS, Sigma Cat. No. A-1888). • 17. Hydrogen peroxide 30% solution (Fisher Cat. No. H325). • 18. ABTS/H2O2. • 19. 0.2 M HCl.
Procedure • 1. Coat Corning 96 well ELISA plates with 0.5 μg 28D4C10 in 100 μl PBS per well, store overnight at 4° C. • 2. Remove unbound 28D4C10 from wells by inverting plate to remove liquid. Wash 1× with dH2O. Pat the plate on a paper towel to remove excess liquid. • 3. Add 150 μl of Blocking Buffer to each well. Incubate for 30 min. at room temperature with shaking. • 4. Wash plate 3× with deionized water, then once with TBST. Pat plate on a paper towel to remove excess liquid and bubbles. • 5. Dilute lysate in HNTG (10 μg lysate/100 μl HNTG) • 6. Add 100 μl of diluted lysate to each well. Shake at room temperature for 60 min. • 7. Wash plates as described in 4, above. • 8. Add 80 μl working kinase buffer mix to ELISA plate containing captured PDGFR. • 9. Dilute test compound 1:10 in TBS in 96-well polypropylene plates (i.e., 10 μl compound+90 μl TBS). • 10. Add 10 μl diluted test compound to ELISA plate. […] Incubate for 30 minutes while shaking at room temperature. • 12. Add 10 μl ATP directly to all wells except negative control well (final well volume should be approximately 100 μl with 20 μM ATP in each well.) Incubate 30 minutes while shaking. • 13. After 30 minutes, stop reaction by adding 10 μl of 200 mM EDTA (pH 8.0) to each well. • 14. Wash 4× with deionized water, twice with TBST. • 15. Add 100 μl anti-phosphotyrosine (1:3000 dilution in TBST) per well. Incubate 30-45 min. at room temperature, with shaking. • 16. Wash as described in 4, above. • 17. Add 100 μl Biosource Goat anti-rabbit IgG peroxidase conjugate (1:2000 dilution in TBST) to each well. Incubate 30 min. at room temperature, with shaking. • 18. Wash as described in 4, above. • 19. Add 100 μl of ABTS/H2O2 solution to each well. • 20. Incubate 10 to 30 minutes with shaking. Remove any bubbles. • 21. If necessary stop reaction with the addition of 100 μl 0.2 M HCl per well. • 22. Read assay on Dynatech MR7000 ELISA reader: test filter: 410 nM, reference filter: 630 nM.

EGFR = EGFR (Homo sapiens, UniProt P00533); assay: Biochemical EGFR assay (ELISA, A431 cell lysate); design: A431 cell lysate (Screening Lab, SUGEN, Inc.); host or cells: A431; conditions: read-out: bio EGFr IC50
Sequence of EGFR (P00533 25-1210): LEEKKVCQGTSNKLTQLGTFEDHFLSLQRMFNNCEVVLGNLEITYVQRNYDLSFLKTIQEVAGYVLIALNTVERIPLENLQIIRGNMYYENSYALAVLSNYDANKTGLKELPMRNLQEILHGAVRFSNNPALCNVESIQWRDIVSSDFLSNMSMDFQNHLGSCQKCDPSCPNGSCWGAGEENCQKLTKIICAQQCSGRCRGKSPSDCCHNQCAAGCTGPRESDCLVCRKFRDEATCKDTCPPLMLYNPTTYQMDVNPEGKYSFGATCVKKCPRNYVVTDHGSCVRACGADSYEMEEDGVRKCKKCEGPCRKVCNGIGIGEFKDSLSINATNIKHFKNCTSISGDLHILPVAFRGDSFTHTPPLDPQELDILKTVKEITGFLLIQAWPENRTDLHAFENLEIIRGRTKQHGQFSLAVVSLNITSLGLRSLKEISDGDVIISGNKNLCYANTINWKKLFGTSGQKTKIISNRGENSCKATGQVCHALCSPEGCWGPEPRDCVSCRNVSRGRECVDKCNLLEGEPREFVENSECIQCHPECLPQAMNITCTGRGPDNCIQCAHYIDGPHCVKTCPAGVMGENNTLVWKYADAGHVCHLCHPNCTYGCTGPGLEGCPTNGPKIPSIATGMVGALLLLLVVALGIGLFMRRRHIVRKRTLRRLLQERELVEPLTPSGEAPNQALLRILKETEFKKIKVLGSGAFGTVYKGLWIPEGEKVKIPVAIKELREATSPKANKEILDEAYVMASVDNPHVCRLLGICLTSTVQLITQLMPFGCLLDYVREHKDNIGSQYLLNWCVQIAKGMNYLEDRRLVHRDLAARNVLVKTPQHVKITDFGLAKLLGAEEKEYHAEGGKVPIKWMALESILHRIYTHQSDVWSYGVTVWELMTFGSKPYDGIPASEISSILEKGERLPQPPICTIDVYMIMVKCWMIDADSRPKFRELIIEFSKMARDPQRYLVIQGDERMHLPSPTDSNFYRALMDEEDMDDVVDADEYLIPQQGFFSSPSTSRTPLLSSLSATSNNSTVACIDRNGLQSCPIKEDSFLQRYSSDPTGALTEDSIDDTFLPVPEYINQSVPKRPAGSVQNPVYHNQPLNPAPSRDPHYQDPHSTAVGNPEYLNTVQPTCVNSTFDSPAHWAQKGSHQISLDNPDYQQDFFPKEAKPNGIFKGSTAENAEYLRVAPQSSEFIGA
Description: This assay measures the in vitro kinase activity of EGFR using ELISA.
Materials and Reagents • 1. […] SUMO1 monoclonal anti-EGFR antibody (Biochemistry Lab, SUGEN, Inc.). • 3. PBS (Dulbecco's Phosphate-Buffered Saline, Gibco Catalog No. 450-1300EB). • 4. TBST Buffer
• 6. A431 cell lysate (Screening Lab, SUGEN, Inc.) • 7. TBS Buffer:
Prepare a 1.0 mM solution in dH2O. This reagent should be made up immediately prior to use and kept on ice. • 10. MnCl2.
Prepare a 1.0 M stock solution in dH2O. • 11. ATP/MnCl2 phosphorylation mix
This reagent should be prepared immediately before use and kept on ice. • 12. NUNC 96-well V bottom polypropylene plates (Applied Scientific Cat. No. AS-72092). • 13. Ethylenediaminetetraacetic acid (EDTA)
Prepare 200 mM working solution in dH2O. Adjust to pH 8.0 with 10 N NaOH. • 14. Rabbit polyclonal anti-phosphotyrosine serum (Biochemistry Lab, SUGEN, Inc.) • 15. Goat anti-rabbit IgG peroxidase conjugate (Biosource Cat. No. ALI0404) • 16. ABTS (2,2′-azino-bis(3-ethylbenzthiazoline-6-sulfonic acid), Sigma Cat. No. A-1888).
Mix first two ingredients in about 900 ml dH2O, adjust pH to 4.0 with phosphoric acid. Add ABTS, cover, let sit about 0.5 hr., filter. The solution should be kept in the dark at 4° C. until ready to use. • 17. Hydrogen peroxide 30% solution (Fisher Cat. No. H325) • 18. ABTS/H2O2 • Mix 15 ml ABTS solution and 2.0 μl H2O2. Prepare 5 minutes before use. • 19. 0.2 M HCl
Procedure • 1. Coat Corning 96 well ELISA plates with 0.5 μg SUMO1 in 100 μl PBS per well, store overnight at 4° C. • 2. Remove unbound SUMO1 from wells by inverting plate to remove liquid., Wash 1× with dH2O. Pat the plate on a paper towel to remove excess liquid. • 3. Add 150 μl of Blocking Buffer to each well. Incubate for 30 min. at room temperature with shaking. • 4. Wash plate 3× with deionized water, then once with TBST. Pat plate on a paper towel to remove excess liquid and bubbles. • 5. Dilute lysate in PBS (7 μg lysate/100 μl PBS). • 6. Add 100 μl of diluted lysate to each well. Shake at room temperature for 60 min. • 7. Wash plates as described in 4, above. • 8. Add 120 μl TBS to ELISA plate containing captured EGFR. • 9. Dilute test compound 1:10 in TBS in 96-well polypropylene plates (i.e. 10 μl compound+90 μl TBS). • 10. Add 13.5 μl diluted test compound to ELISA plate. […] Incubate for 30 minutes while shaking at room temperature. • 12. […] After 5 minutes, stop reaction by adding 16.5 μl of 200 mM EDTA (pH 8.0) to each well, shaking continuously. After the EDTA has been added, shake for 1 min. • 14. Wash 4× with deionized water, twice with TBST. • 15. Add 100 μl anti-phosphotyrosine (1:3000 dilution in TBST) per well. Incubate 30-45 min. at room temperature, with shaking. • 16. Wash as described in 4, above. • 17. Add 100 μl Biosource Goat anti-rabbit IgG peroxidase conjugate (1:2000 dilution in TBST) to each well. Incubate 30 min. at room temperature, with shaking. • 18. Wash as described in 4, above. • 19. Add 100 μl of ABTS/H2O2 solution to each well. • 20. Incubate 5 to 10 minutes with shaking. Remove any bubbles. • 21. If necessary stop reaction with the addition of 100 μl 1 0.2 M HCl per well. • 22. Read assay on Dynatech MR7000 ELISA reader. Test Filter: 410 nM Reference Filter: 630 Nm.

[1] = molecular target: T3, chimeric receptor containing the EGFR extracellular domain and intracellular HER2 kinase domain (Homo sapiens, UniProt P04626); assay: EGF Receptor-HER2 chimeric receptor assay in whole cells (ELISA); assay type: cell-based; conditions: read-out: HER-2 kinase IC50
T3 construct: fused on or other part: EGFR ectodomain + HER2 intracellular part, ATP-site indolinones: HER2's kinase
T3 sequence (P04626 720-1255 limits assumed, change not shown): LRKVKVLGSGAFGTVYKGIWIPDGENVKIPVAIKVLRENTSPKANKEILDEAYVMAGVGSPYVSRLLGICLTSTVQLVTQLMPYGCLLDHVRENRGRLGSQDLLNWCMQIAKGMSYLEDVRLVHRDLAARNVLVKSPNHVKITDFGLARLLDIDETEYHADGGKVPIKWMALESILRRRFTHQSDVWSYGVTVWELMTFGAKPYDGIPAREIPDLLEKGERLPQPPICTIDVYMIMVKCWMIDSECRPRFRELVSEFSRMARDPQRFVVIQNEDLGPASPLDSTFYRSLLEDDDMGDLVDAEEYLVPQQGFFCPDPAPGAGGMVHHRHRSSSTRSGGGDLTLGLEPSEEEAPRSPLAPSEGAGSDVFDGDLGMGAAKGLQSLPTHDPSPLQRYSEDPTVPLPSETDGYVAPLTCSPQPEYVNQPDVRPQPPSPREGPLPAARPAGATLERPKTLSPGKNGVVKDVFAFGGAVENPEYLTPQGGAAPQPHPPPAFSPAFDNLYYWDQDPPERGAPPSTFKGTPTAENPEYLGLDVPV
Description: EGF Receptor-HER2 Chimeric Receptor Assay In Whole Cells.
HER2 kinase activity in whole EGFR-NIH3T3 cells are measured as described below:
• a. […] 05-101 (UBI) (a monoclonal antibody recognizing an EGFR extracellular domain). • c. Anti-phosphotyrosine antibody (anti-Ptyr) (polyclonal) (see, Fendley, et al., supra). • d. Detection antibody: Goat anti-rabbit IgG horseradish peroxidase conjugate, TAGO, Inc., Burlingame, Calif. • e. TBST buffer:
• h. Stock reagents of:
Pre-coat ELISA Plate • 1. […] Coated plates are good for up to 10 days when stored at 4° C. • 2. On day of use, remove coating buffer and replace with 100 μl blocking buffer (5% Carnation Instant Non-Fat Dry Milk in PBS). Incubate the plate, shaking, at room temperature (about 23° C. to 25° C.) for 30 minutes. Just prior to use, remove blocking buffer and wash plate 4 times with TBST buffer.
Seeding Cells • 1. An NIH3T3 cell line overexpressing a chimeric receptor containing the EGFR extracellular domain and intracellular HER2 kinase domain can be used for this assay. • 2. Choose dishes having 80-90% confluence for the experiment. Trypsinize cells and stop reaction by adding 10% fetal bovine serum. Suspend cells in DMEM medium (10% CS DMEM medium) and centrifuge once at 1500 rpm, at room temperature for 5 minutes. • 3. Resuspend cells in seeding medium (DMEM, 0.5% bovine serum), and count the cells using trypan blue. Viability above 90% is acceptable. Seed cells in DMEM medium (0.5% bovine serum) at a density of 10,000 cells per well, 100 μl per well, in a 96 well microtiter plate. Incubate seeded cells in 5% CO2. at 37° C. for about 40 hours.
Assay Procedures • 1. Check seeded cells for contamination using an inverted microscope. Dilute drug stock (10 mg/ml in DMSO) 1:10 in DMEM medium, then transfer 5 μl to a […] well for a final drug dilution of 1:200 and a final DMSO concentration of 1%. Control wells receive DMSO alone. Incubate in 5% CO2 at 37° C. for two hours. • 2. Prepare EGF ligand: dilute stock EGF in DMEM so that upon transfer of 10 μl dilute EGF (1:12 dilution), 100 nM final concentration is attained. • 3. Prepare fresh HNTG* sufficient for 100 μl per well, and place on ice.
• 4. After 120 minutes incubation with drug, add prepared […] ligand to cells, 10 μl per well, to a final concentration of 100 nM. Control wells receive DMEM alone. Incubate with shaking, at room temperature, for 5 minutes. • 5. Remove drug, EGF, and DMEM. Wash cells twice with PBS. Transfer HNTG* to cells, 100 μl per well. Place on ice for 5 minutes. Meanwhile, remove blocking buffer from other ELISA plate and wash with TBST as described above. • 6. With a pipette tip securely fitted to a micropipettor, scrape cells from plate and homogenize cell material by repeatedly aspirating and dispensing the HNTG* lysis buffer. Transfer lysate to a coated, blocked, and washed ELISA plate. Incubate shaking at room temperature for one hour. • 7. Remove lysate and wash 4 times with TBST. Transfer freshly diluted anti-Ptyr antibody to ELISA plate at 100 μl per well. Incubate shaking at room temperature for 30 minutes in the presence of the anti-Ptyr antiserum (1:3000 dilution in TBST). • 8. Remove the anti-Ptyr antibody and wash 4 times with TBST. Transfer the freshly diluted TAGO anti-rabbit IgG antibody to the ELISA plate at 100 μl per well. Incubate shaking at room temperature for 30 minutes (anti-rabbit IgG antibody: 1:3000 dilution in TBST). • 9. Remove TAGO detection antibody and wash 4 times with TBST. Transfer freshly prepared ABTS/H2O2 solution to ELISA plate, 100 μl per well. Incubate shaking at room temperature for 20 minutes. (ABTS/H2O2 solution: 1.0 μl 30% H2O2 in 10 ml ABTS stock). • 10. Stop reaction by adding 50 μl 5N H2SO4 (optional), and determine O.D. at 410 nm. • 11. The maximal phosphotyrosine signal is determined by subtracting the value of the negative controls from the positive controls. […]

T1 sequence (P35968 786-1356 limits assumed): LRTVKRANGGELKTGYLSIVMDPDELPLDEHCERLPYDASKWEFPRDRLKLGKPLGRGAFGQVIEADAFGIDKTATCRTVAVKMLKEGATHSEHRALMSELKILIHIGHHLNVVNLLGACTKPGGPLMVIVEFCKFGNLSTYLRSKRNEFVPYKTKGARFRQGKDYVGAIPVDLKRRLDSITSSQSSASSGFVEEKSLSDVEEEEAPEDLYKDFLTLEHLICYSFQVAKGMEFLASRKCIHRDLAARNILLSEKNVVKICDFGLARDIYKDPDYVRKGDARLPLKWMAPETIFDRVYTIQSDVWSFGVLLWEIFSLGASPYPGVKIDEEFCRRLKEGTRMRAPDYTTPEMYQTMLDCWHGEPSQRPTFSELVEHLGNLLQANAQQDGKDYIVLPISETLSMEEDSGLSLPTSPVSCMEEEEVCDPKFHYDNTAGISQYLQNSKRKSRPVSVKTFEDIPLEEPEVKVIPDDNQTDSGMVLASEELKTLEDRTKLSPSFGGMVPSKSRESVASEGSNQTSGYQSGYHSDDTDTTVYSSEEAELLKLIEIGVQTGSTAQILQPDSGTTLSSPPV

SMILES	IC50 (flkGST)	IC50 (PDGFR-β)	IC50 (EGFR)	IC50 [1]
CCOC(=O)c1c(C)[nH]c(/C=C2\C(=O)Nc3ccc(S(=O)(=O)NC)cc32)c1CCCN1CCCC1 [Example 126, 2-Methyl-5-(5-methylsulfamoyl-2-oxo-1,2-dihydroindol-3-ylidenemethyl)-4-(3-pyrrolidin-1-ylpropyl)-1H-pyrrole-3-carboxylic acid ethyl ester]	14.8 µM	63.3 µM	–	–
COc1ccc2c(c1)/C(=C/c1[nH]c3ccccc3c1CCCN(C)C)C(=O)N2 [Example 151, 3-[3-(3-Dimethylaminopropyl)-1H-indol-2-ylmethylene]-5-methoxy-1,3-dihydroindol-2-one]	0.71 µM	0.65 µM	–	–
Cc1c(C=C2C(=O)Nc3ccc(S(=O)(=O)N(C)C)cc32)[nH]c2ccccc12 (racemic) [Example 155, 3-(3-Methyl-1H-indol-2-ylmethylene)-2-oxo-2,3-dihydro-1H-indole-5-sulfonic acid dimethylamide]	–	–	> 100 µM	> 100 µM
CCOC(=O)c1c(C)[nH]c(/C=C2\C(=O)Nc3ccc(S(N)(=O)=O)cc32)c1CCCN1CCCC1 [Example 130, 2-Methyl-5-(2-oxo-5-sulfamoyl-1,2-dihydroindol-3-ylidenemethyl)-4-(3-pyrrolidin-1-ylpropyl)-1H-pyrrole-3-carboxylic acid ethyl ester]	12.9 µM	2.32 µM	–	–
